Experiments:
[1] = target: Tyrosine-protein kinase BTK (Homo sapiens, UniProt Q06187); assay: Reversible inhibition of full length recombinant human N-terminal His tagged […] expressed in baculovirus infected Sf9 insect cells using poly (Glu,Tyr)4:1 as substrate pretreated for 2 to 60 mins followed by substrate addition after 1 hr by ADP-Glo luminescence assay
[2] = AUC (0 to t) in Sprague-Dawley rat at 10 mg/kg, po by LC-MS/MS method; type: ADME, organism-based; settings: in vivo
[3] = AUC (0 to infinity) in Sprague-Dawley rat at 10 mg/kg, po by LC-MS/MS method; type: ADME, organism-based; set-up: dose 10 mg/kg, route oral, time infinity; settings: in vivo
[4] = test system: Tyrosine-protein kinase ABL1 (Homo sapiens), P00519 [F317I]; assay: Inhibition of human phosphorylated ABL1 F317I mutant (S229 to K512 residues) expressed in mammalian expression system assessed as residual activity at 1 uM by Kinomescan method relative to control
Chain of Tyrosine-protein kinase ABL1 (Homo sapiens), P00519 [F317I] (P00519 whole entry F317I, the tested form may be a part): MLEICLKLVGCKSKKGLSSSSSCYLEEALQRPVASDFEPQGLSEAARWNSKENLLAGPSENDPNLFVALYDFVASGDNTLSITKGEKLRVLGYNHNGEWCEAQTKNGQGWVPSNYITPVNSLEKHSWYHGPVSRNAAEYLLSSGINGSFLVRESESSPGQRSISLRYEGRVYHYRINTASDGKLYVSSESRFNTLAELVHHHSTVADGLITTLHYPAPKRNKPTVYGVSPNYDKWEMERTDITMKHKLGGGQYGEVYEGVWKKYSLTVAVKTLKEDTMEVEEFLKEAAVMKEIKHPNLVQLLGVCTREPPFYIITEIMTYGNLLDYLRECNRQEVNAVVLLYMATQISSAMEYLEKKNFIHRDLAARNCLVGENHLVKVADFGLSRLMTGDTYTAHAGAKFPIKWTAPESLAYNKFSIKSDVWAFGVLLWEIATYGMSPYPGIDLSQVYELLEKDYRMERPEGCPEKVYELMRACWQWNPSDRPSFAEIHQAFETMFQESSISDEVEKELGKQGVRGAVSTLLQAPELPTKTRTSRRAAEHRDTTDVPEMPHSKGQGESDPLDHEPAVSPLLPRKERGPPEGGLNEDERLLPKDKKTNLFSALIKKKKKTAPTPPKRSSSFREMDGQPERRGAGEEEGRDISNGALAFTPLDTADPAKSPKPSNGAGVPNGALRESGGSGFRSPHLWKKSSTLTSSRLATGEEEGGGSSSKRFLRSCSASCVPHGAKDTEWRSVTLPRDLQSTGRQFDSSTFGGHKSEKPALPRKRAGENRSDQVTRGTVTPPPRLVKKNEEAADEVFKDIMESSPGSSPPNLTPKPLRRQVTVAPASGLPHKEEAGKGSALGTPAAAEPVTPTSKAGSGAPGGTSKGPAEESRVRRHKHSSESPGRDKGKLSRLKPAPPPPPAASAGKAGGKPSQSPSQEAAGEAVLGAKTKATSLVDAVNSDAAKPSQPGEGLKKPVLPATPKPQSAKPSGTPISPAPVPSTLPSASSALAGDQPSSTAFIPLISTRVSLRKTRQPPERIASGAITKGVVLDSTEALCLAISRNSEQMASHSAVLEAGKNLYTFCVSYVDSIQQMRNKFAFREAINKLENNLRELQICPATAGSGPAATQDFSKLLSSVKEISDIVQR

[5] = target: Aurora kinase A (Homo sapiens) (UniProt O14965); assay: Inhibition of wild-type human partial length AURKA (E122 to K401 residues) expressed in mammalian expression system assessed as residual activity at 1 uM by Kinomescan method relative to control
Chain of Aurora kinase A (Homo sapiens) (O14965 whole entry, the tested form may be a part): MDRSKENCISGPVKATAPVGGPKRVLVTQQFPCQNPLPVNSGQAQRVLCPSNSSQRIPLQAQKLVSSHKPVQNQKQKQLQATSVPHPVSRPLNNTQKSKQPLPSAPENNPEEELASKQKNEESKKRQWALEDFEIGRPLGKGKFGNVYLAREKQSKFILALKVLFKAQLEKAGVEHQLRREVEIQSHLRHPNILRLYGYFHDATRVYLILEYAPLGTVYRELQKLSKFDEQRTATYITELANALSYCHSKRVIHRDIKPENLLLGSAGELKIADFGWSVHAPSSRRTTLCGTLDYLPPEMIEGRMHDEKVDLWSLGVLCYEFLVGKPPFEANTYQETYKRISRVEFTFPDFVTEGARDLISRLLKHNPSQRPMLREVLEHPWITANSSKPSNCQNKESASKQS

[6] = target: Calcium/calmodulin-dependent protein kinase type II subunit alpha (Homo sapiens) (UniProt Q9UQM7); assay: Inhibition of wild-type human partial length CAMK2A (M1 to K328 residues) expressed in bacterial expression system assessed as residual activity at 1 uM by Kinomescan method relative to control
[7] = target: Serine/threonine-protein kinase MRCK gamma (Homo sapiens) (UniProt Q6DT37); assay: Inhibition of wild-type human partial length DMPK2 (S46 to S408 residues) expressed in bacterial expression system assessed as residual activity at 1 uM by Kinomescan method relative to control
[8] = target: Focal adhesion kinase 1 (Homo sapiens) (UniProt Q05397); assay: Inhibition of wild-type human partial length FAK (D402 to R696 residues) expressed in bacterial expression system assessed as residual activity at 1 uM by Kinomescan method relative to control
[9] = target: Tyrosine-protein kinase Fyn (Homo sapiens) (UniProt P06241); assay: Inhibition of wild-type human partial length FYN (T243 to L534 residues) expressed in bacterial expression system assessed as residual activity at 1 uM by Kinomescan method relative to control
[10] = target: Homeodomain-interacting protein kinase 4 (Homo sapiens) (UniProt Q8NE63); assay: Inhibition of wild-type human partial length HIPK4 (M1 to V384 residues) expressed in bacterial expression system assessed as residual activity at 1 uM by Kinomescan method relative to control
[11] = target: Insulin-like growth factor 1 receptor (Homo sapiens) (UniProt P08069); assay: Inhibition of wild-type human partial length IGF1R (L972 to D1294 residues) expressed in bacterial expression system assessed as residual activity at 1 uM by Kinomescan method relative to control
[12] = test system: Mast/stem cell growth factor receptor Kit (Homo sapiens), P10721 [D816H]; assay: Inhibition of human partial length KIT D816H mutant (I571 to D952 residues) expressed in mammalian expression system assessed as residual activity at 1 uM by Kinomescan method relative to control
[13] = target: Mast/stem cell growth factor receptor Kit (Homo sapiens) (UniProt P10721); assay: Inhibition of wild-type human partial length autoinhibited KIT (Y545 to D952 residues) expressed in mammalian expression system assessed as residual activity at 1 uM by Kinomescan method relative to control
[14] = target: Leucine-rich repeat serine/threonine-protein kinase 2 (Homo sapiens) (UniProt Q5S007); assay: Inhibition of wild-type human partial length LRRK2 (H970 to E2527 residues) expressed in mammalian expression system assessed as residual activity at 1 uM by Kinomescan method relative to control
[15] = target: Mitogen-activated protein kinase kinase kinase kinase 2 (Homo sapiens) (UniProt Q12851); assay: Inhibition of wild-type human partial length MAP4K2 (M1 to G318 residues) expressed in mammalian expression system assessed as residual activity at 1 uM by Kinomescan method relative to control
[16] = target: Mitogen-activated protein kinase kinase kinase kinase 4 (Homo sapiens) (UniProt O95819); assay: Inhibition of wild-type human partial length MAP4K4 (M1 to R310 residues) expressed in bacterial expression system assessed as residual activity at 1 uM by Kinomescan method relative to control
Chain of Mitogen-activated protein kinase kinase kinase kinase 4 (Homo sapiens) (O95819 2-1239 limits assumed): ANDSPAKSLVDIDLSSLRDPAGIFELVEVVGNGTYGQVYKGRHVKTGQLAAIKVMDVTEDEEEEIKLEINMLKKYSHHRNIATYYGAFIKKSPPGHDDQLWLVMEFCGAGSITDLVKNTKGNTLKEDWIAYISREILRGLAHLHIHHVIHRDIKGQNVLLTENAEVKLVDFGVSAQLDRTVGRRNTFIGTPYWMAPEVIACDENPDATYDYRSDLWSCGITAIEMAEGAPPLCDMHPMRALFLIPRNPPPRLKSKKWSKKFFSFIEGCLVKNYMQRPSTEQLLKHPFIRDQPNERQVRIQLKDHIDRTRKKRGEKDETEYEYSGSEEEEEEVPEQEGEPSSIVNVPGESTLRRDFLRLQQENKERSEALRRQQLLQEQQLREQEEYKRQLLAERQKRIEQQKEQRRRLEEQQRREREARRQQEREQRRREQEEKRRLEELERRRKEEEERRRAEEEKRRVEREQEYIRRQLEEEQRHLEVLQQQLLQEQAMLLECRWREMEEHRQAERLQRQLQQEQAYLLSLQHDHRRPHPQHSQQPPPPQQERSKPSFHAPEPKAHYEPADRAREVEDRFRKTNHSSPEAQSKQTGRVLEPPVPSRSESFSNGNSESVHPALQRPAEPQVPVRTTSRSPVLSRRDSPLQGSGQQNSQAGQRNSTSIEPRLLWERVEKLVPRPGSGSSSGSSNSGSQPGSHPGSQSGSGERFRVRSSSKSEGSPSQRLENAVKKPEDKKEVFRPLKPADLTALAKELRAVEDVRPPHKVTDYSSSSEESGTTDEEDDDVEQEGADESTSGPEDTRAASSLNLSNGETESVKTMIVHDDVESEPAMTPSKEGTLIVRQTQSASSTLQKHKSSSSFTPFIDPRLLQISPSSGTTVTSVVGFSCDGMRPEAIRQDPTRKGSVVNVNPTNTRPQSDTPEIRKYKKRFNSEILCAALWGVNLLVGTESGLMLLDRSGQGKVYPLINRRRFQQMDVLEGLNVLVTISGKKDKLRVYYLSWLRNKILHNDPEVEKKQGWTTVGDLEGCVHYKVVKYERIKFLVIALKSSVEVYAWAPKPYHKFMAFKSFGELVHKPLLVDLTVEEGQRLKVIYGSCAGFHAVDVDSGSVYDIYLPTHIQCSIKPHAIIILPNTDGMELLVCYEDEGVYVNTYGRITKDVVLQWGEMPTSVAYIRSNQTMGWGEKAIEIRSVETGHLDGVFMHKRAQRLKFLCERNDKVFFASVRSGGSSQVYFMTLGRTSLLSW

[17] = target: Myosin light chain kinase, smooth muscle (Homo sapiens) (UniProt Q15746); assay: Inhibition of wild-type human full length MYLK (M854 to E1845 residues) expressed in mammalian expression system assessed as residual activity at 1 uM by Kinomescan method relative to control
[18] = target: Phosphorylase b kinase gamma catalytic chain, skeletal muscle/heart isoform (Homo sapiens) (UniProt Q16816); assay: Inhibition of wild-type human full length PHKG1 (M1 to Y387 residues) expressed in bacterial expression system assessed as residual activity at 1 uM by Kinomescan method relative to control
[19] = target: Phosphatidylinositol 4,5-bisphosphate 3-kinase catalytic subunit alpha isoform (Homo sapiens) (UniProt P42336); assay: Inhibition of wild-type human partial length PIK3CA (R108 to N1068 residues) expressed in mammalian expression system assessed as residual activity at 1 uM by Kinomescan method relative to control
Chain of Phosphatidylinositol 4,5-bisphosphate 3-kinase catalytic subunit alpha isoform (Homo sapiens) (P42336 whole entry, the tested form may be a part, canonical isoform): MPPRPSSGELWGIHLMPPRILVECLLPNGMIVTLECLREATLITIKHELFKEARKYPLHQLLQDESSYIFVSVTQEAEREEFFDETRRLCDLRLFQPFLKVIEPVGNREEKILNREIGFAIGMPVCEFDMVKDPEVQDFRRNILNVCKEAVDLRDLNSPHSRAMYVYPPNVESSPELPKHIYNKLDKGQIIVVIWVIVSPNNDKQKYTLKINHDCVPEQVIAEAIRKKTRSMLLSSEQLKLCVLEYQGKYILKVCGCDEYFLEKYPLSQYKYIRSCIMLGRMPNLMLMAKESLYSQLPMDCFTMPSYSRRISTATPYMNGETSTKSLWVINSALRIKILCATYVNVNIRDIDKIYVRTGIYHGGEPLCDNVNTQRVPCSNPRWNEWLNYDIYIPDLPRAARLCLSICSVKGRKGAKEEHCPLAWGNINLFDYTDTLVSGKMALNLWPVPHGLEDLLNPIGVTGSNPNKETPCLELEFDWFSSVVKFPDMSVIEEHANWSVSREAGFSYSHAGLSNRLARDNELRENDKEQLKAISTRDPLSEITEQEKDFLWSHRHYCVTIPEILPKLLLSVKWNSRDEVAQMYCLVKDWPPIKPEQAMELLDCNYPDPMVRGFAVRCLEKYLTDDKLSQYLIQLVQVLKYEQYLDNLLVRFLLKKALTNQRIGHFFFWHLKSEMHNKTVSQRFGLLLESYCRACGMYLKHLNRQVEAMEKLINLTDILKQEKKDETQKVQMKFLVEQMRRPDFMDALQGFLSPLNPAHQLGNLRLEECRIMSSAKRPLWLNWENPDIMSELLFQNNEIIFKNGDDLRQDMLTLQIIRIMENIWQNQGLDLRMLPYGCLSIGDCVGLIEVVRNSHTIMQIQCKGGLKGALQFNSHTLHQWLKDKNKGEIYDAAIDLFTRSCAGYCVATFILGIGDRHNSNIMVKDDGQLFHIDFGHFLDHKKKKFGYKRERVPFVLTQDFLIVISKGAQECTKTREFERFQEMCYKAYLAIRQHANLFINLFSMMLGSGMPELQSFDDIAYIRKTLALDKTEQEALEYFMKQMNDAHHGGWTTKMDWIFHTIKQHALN

[20] = target: Protein kinase C epsilon type (Homo sapiens) (UniProt Q02156); assay: Inhibition of wild-type human partial length PRKCE (A378 to P737 residues) expressed in mammalian expression system assessed as residual activity at 1 uM by Kinomescan method relative to control
[21] = test system: Proto-oncogene tyrosine-protein kinase receptor Ret (Homo sapiens), P07949 [V804M]; assay: Inhibition of human partial length RET V804M mutant (E713 to D1014 residues) expressed in bacterial expression system assessed as residual activity at 1 uM by Kinomescan method relative to control
Chain of Proto-oncogene tyrosine-protein kinase receptor Ret (Homo sapiens), P07949 [V804M] (P07949 whole entry V804M, the tested form may be a part): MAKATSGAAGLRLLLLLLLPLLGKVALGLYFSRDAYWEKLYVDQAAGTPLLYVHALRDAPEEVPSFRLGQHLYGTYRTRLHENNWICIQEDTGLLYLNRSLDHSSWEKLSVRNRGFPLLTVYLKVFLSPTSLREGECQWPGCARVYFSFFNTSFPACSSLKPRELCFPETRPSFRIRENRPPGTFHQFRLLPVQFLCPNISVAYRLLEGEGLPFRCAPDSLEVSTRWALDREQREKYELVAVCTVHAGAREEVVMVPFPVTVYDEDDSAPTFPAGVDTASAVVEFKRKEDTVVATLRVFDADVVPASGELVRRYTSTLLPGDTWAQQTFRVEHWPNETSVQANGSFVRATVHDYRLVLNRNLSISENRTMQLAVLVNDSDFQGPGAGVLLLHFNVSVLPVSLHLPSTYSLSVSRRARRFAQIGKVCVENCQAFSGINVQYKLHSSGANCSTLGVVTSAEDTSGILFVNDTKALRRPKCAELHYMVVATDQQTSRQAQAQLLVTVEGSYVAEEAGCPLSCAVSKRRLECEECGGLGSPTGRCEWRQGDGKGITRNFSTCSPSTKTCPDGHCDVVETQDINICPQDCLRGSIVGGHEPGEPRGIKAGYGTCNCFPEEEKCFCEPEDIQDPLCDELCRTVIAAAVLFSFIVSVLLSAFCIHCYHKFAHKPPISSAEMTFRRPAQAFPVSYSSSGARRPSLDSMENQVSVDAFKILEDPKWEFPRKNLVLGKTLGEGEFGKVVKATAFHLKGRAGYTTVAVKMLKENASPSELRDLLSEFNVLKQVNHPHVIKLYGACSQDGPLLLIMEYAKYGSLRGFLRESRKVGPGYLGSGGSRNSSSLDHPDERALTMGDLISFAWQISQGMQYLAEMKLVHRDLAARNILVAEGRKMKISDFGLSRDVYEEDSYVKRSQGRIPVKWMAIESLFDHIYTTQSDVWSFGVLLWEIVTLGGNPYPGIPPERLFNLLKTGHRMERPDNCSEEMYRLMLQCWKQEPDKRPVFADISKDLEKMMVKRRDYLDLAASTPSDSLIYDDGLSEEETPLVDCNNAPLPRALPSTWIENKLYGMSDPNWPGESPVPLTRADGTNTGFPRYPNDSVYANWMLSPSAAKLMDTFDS

[22] = target: Proto-oncogene tyrosine-protein kinase Src (Homo sapiens) (UniProt P12931); assay: Inhibition of wild-type human partial length SRC (L240 to L536 residues) expressed in bacterial expression system assessed as residual activity at 1 uM by Kinomescan method relative to control
[23] = target: Dual specificity testis-specific protein kinase 1 (Homo sapiens) (UniProt Q15569); assay: Inhibition of wild-type human […] length TESK1 (R37 to S626 residues) expressed in bacterial expression system assessed as residual activity at 1 uM by Kinomescan method relative to control
[24] = target: Serine/threonine-protein kinase TNNI3K (Homo sapiens) (UniProt Q59H18); assay: Inhibition of wild-type human full length TNNI3K (M1 to S835 residues) expressed in bacterial expression system assessed as residual activity at 1 uM by Kinomescan method relative to control
[25] = target: Serine/threonine-protein kinase 32B (Homo sapiens) (UniProt Q9NY57); assay: Inhibition of wild-type human full length YANK2 (M1 to S414 residues) expressed in bacterial expression system assessed as residual activity at 1 uM by Kinomescan method relative to control
Pfeiffer = assay: Induction of apoptosis in human Pfeiffer cells assessed as induction of caspase-3 cleavage after 48 hrs by immunoblot; type: functional, cell-based

SMILES: C=CC(=O)Nc1cc(Nc2cc(-c3cccc(NC(=O)c4ccc(C(C)(C)C)cc4)c3C)cn(C)c2=O)ccc1C(=O)N1CCOCC1
- Ki [1]: 8.9 nM
- AUC(0-t) [2]: 22 ng·h/mL
- AUC(0-inf) [3]: 34.5 ng·h/mL
- Activity [4]: 97%
- Activity [5]: 61%
- Activity [6]: 100%
- Activity [7]: 100%
- Activity [8]: 96%
- Activity [9]: 73%
- Activity [10]: 79%
- Activity [11]: 92%
- Activity [12]: 94%
- Activity [13]: 100%
- Activity [14]: 100%
- Activity [15]: 94%
- Activity [16]: 86%
- Activity [17]: 100%
- Activity [18]: 100%
- Activity [19]: 100%
- Activity [20]: 96%
- Activity [21]: 96%
- Activity [22]: 99%
- Activity [23]: 90%
- Activity [24]: 37%
- Activity [25]: 100%
- Activity (Pfeiffer): Dose-dependent effect
